How the values were obtained:
Format in all cases: in vivo
[1] = system: mouse pancreatic islet β-cell injury model (STZ); assay: Blood glucose in STZ mouse pancreatic islet β-cell injury model (Example 1, canagliflozin); conditions: STZ ICR mice; single agent 0.02 g/kg per day by gavage, two weeks; 1 h after last administration; mean ± SD
Description: (§1) In this example, a mouse pancreatic islet β-cell injury model was established by modeling ICR mice with streptozotocin (STZ) (Li Nan et al., Protective effect of pine pollen on kidney damage in diabetic nephropathy mice, Science and Technology Review, 2014, 32 (4/5): 95-99), and used to complete the evaluation of hypoglycemic effect in animals (this model could simulate pancreatic islet β-cell damage state of type I and type II diabetics). The limonoid compound was selected from the group consisting of limonin, isolimonic acid, limonin glycoside, and isolimonic acid glycoside, and canagliflozin single administration group, limonin single administration group, isolimonic acid single administration group, limonin glycoside singe administration group, isolimonic acid glycoside singe administration group, and respective combination thereof with canagliflozin administration groups were set.
(§2) Conditions of experimental feeding: ICR mice (20±2 g), aged 6 weeks, purchased from Zhejiang Academy of Medical Sciences, and subjected to experimental feeding after 7 days of preliminary feeding. It should be noted that the conditions for raising the mice were as follows: the temperature was 23±1° C., the humidity was 55±10%, the lights were turned on between 7 am and 7 pm (the lights were turned off at other time), and the mice were allowed to freely take in water and feed. […]

[2] = system: mouse type II diabetes model (db/db mice); assay: Blood glucose in db/db mouse type II diabetes model (Example 2, dapagliflozin); conditions: single agent 0.04 g/kg per day by gavage, two weeks, 1 h after last administration, mean ± SD
Description: (§3) In the present example, db/db mice (line name BKS.Cg-Dock7^m+/+Lepr^db/Nju) were used to perform hypoglycemic efficacy evaluation test of animals (blood glucose level and leptin). The limonoid compound was selected from obacunone, isoobacunoic acid and obacunone glycoside, and dapagliflozin single administration group, obacunone single administration group, isoobacunoic acid single administration group, obacunone glycoside single administered group, and respective combination thereof with dapagliflozin administration groups were set. Conditions for experimental feeding: as type II diabetes model mice, 6-week-old SPF-grade db/db mice were purchased from the Nanjing Model Biology Institute, and subjected to experimental feeding after 7 days of preliminary feeding. It should be noted that the conditions for raising the mice were as follows: the temperature was 23±1° C., the humidity was 55±10%, the lights were turned on between 7 am and 7 pm (the lights were turned off at other time), and the mice were allowed to freely take in water and feed. […] The data were expressed as mean and standard deviation. The data before and after were analyzed by t-test, and P<0.05 was considered statistically significant.

[3] = system: mouse type II diabetes model (db/db mice); assay: Serum leptin by ELISA in db/db mouse type II diabetes model (Example 2); conditions: single agent 0.04 g/kg per day by gavage, two weeks, mean ± SD
Description: as §3

[4] = system: mouse pancreatic islet β-cell injury model (STZ); assay: Blood glucose in STZ mouse pancreatic islet β-cell injury model (Example 3, empagliflozin); conditions: STZ ICR mice; single agent 0.1 g/kg per day by gavage, two weeks; 1 h after last administration; mean ± SD
Description: as §1, with “ichangin, ichangensin, and ichangin” for “limonin, isolimonic acid, limonin”, “empagliflozin” for “isolimonic acid glycoside, and canagliflozin”, “ichangin” for “limonin”, “ichangensi” for “isolimonic acid”, “ichangin” for “limonin glycoside singe administration group, isolimonic acid”, “empagliflozin” for “canagliflozin”
as §2

[5] = system: mouse type II diabetes model (db/db mice); assay: Blood glucose in db/db mouse type II diabetes model (Example 4, ipragliflozin); conditions: single agent 0.2 g/kg per day by gavage, two weeks, 1 h after last administration, mean ± SD
Description: (§4) In the present embodiment, the limonoid compound was selected nomilin, deacetylnomilin, nomilin acid, deacetylnomilin acid glycoside, and ipragliflozin single administration group, nomilin single administration group, deacetylnomilin single administration group, nomilin acid single administered group, deacetylnomilin acid glycoside single administration group, and respective combination thereof with ipragliflozin administration groups were set.
(§5) Conditions for experimental feeding: as type II diabetes model mice, 6-week-old SPF-grade db/db mice were purchased from the Nanjing Model Biology Institute, and subjected to experimental feeding after 7 days of preliminary feeding. It should be noted that the conditions for raising the mice were as follows: the temperature was 23±1° C., the humidity was 55±10%, the lights were turned on between 7 am and 7 pm (the lights were turned off at other time), and the mice were allowed to freely take in water and feed. The experimental feed was mouse growth-stable feed (GB M2118), and the daily feeding and management of the animals were under the responsibility of the animal security department, which provided the animals with sufficient diet and fresh drinking water daily.
(§6) Experimental grouping: male db/db mice (20±2 g) were selected, 18 male mice in each group were tested, and drinking bottles were sterilized weekly. […]

[6] = system: mouse type II diabetes model (db/db mice); assay: Serum insulin by ELISA in db/db mouse type II diabetes model (Example 4); conditions: single agent 0.2 g/kg per day by gavage, two weeks, mean ± SD
Description: as §4, §5, §6

`Cc1ccc([C@@H]2O[C@H](CO)[C@@H](O)[C@H](O)[C@H]2O)cc1Cc1ccc(-c2ccc(F)cc2)s1` [Canagliflozin, canagliflozin] was tested, and the Blood glucose value [1] was 19.1 ± 4.1 mmol/L.
`CCOc1ccc(Cc2cc([C@@H]3O[C@H](CO)[C@@H](O)[C@H](O)[C@H]3O)ccc2Cl)cc1` [Dapagliflozin, dapagliflozin] was tested, and the Blood glucose value [2] was 12.0 ± 2.9 mmol/L and the Leptin [3] was 25.34 ± 5.26 pg/mL.
Compound `OC[C@H]1O[C@@H](c2ccc(Cl)c(Cc3ccc(O[C@H]4CCOC4)cc3)c2)[C@H](O)[C@@H](O)[C@@H]1O` [Empagliflozin, empagliflozin] has a Blood glucose value [4] of 13.9 ± 2.0 mmol/L.
For `OC[C@H]1O[C@@H](c2ccc(F)c(Cc3cc4ccccc4s3)c2)[C@H](O)[C@@H](O)[C@@H]1O` [Ipragliflozin, ipragliflozin], the Blood glucose value [5] was 10.3 ± 2.3 mmol/L and the Insulin [6] was 7.61 ± 1.03 pg/mL.

Reference: patent US20220313708A1, “COMBINATION PRODUCT CONTAINING LIMONOID COMPOUND AND SGLT-2 INHIBITOR” (ZHEJIANG YANGSHENGTANG INSTITUTE OF NATURAL MEDICATION CO., …, priority 2019, published 2022)
